Experimental data taken from PubChem BioAssay AID488790 (NMMLSC, 2010).

Tested on: S. cerevisiae AGP1-GFP strain, flow cytometry fluorescence, 3 h
Test: AGP1-GFP level modulation, analog dose series – cell-based, flow cytometry, S. cerevisiae, cherry pick 3, SAR follow-up (AID 488790)

EC50: 4.59 µM
SMILES: CCOC(=O)CS(=O)(=O)c1nc(-c2ccccc2)cc(C(F)(F)F)n1
